How the values were obtained:
human IP1 receptor = molecular target: T1, human IP1 receptor (Homo sapiens, UniProt P43119); test: Inhibition of FLUO-BSA-ILO receptor binding/uptake with CAY10449 on 16HBE14o-cells (FACS); assay type: cell-based; conditions: 25 nM conjugate, increasing CAY10449 (15, 30, 150 μM) or excess of unconjugated ILO
T1 construct: The expression of IP1 receptor in human alveolar (A549) and bronchial (BEAS-2B, 16HBE14o-) epithelial cells was confirmed by Western blot analysis; endogenous in cells; host or cells: 16HBE14o- human bronchial epithelial cells
Method: 24-well plates were prepared as described above. CAY10449 was diluted in MEM to concentrations of 15 μM, 30 μM and 150 μM, and the mixtures were incubated at 37° C. for 15 min. […] The binding/uptake was measured using FACS.

[1] = physiological environment, i.e. in the blood; cited from earlier work
16HBE14o-cells [2] = test: FACS receptor binding/uptake of fluorescein-BSA conjugates; assay type: cell-based, human; conditions: 0.5 μM conjugate, 4 h, 37° C.
Method: (§1) For the FACS measurement experiments, 100 000 cells/well were seeded in 24-well plates (TPP, Trasadingen, Switzerland) 24 hours before adding the conjugates. […] After the cells had been washed with PBS, the cells were removed from the wells by treatment with trypsin, and the FACS measurements were carried out using a Beckton-Dickinson FACS scan (San Jose, USA). For the confocal laser scanning microscopy, the experiments were carried out on slides with 4 chambers from BD Falcon Culture (BD Biosciences San Jose, USA) with 25 000 cells per chamber. The incubation of FLUO-BSA-ILO and FLUO-BSA was performed as described above. The cells were washed and fixed in 4% paraformaldehyde, and the nuclei were subsequently stained with 0.33 μM DAPI (4′,6-diamidino-2-phenylindole) and F-actin with Alexafluor® 568 Falloidin (Invitrogen GmbH, Karlsruhe, Germany) using standard protocols. The slides were covered with medium (Vectashield, Vector Laboratories Inc., Berlingame, USA), and images were taken with a confocal laser scanning microscope (Leica, Solms, Germany).

A549 cells = test: as above; assay type: cell-based, human; conditions: 0.5 μM conjugate, 4 h, 37° C.
Method: as §1

BEAS-2B cells = test: as above; assay type: cell-based, human; conditions: 0.5 μM conjugate, 4 h, 37° C.
Method: as §1

H441 cells = test: as above; assay type: cell-based, human; conditions: 0.5 μM conjugate, 4 h, 37° C.
Method: as §1

16HBE14o-cells [3] = test: Confocal laser scanning microscopy of surface binding and intracellular uptake; assay type: cell-based, human; conditions: 0.5 μM conjugate
Method: as §1

T1 sequence (P43119 whole entry): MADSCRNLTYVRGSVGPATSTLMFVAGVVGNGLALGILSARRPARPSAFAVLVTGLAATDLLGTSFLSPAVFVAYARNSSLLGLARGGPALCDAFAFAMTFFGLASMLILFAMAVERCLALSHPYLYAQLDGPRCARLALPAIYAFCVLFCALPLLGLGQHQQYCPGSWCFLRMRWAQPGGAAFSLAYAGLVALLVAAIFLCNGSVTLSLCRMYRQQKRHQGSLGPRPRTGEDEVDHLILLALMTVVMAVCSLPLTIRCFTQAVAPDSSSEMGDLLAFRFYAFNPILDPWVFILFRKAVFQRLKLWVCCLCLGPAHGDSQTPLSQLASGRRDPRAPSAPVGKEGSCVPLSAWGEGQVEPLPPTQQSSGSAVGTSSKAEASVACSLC

| Molecule | effect of competitor on number of fluorescence-positive cells and MFI (human IP1 receptor) | half-life [1] | positive 16HBE14o-cells (16HBE14o-cells [2]) | positive A549 cells (A549 cells) | positive cells (BEAS-2B) (BEAS-2B cells) | positive cells (H441) (H441 cells) | cell surface binding and intracellular uptake (confocal microscopy) (16HBE14o-cells [3]) |
| --- | --- | --- | --- | --- | --- | --- | --- |
| CC(C)Oc1ccc(Cc2ccc(NC3=NCCN3)cc2)cc1 [CAY10449] | significant dose-dependent reduction | – | – | – | – | – | – |
| CCCCC[C@H](O)/C=C/[C@@H]1[C@H]2C/C(=C/CCCC(=O)O)O[C@H]2C[C@H]1O [prostacyclin] | – | only a few minutes | – | – | – | – | – |
| FLUO-BSA: fluorescein-labeled bovine serum albumin, control without ligand | no activity | – | unspecific background binding | unspecific background binding | 13.7±1.2% | 9.1±1.9% | no uptake |
